Results on 27 compounds are retold here after patent US7012089B2, “[1,4]Diazocino[7,8,1-hi]indole derivatives as antipsychotic and antiobesity agents” (Wyeth, priority 2002, dated 2006).

In assay [1] the target is T1, human 5-hydroxytryptamine-2C (h-5-HT2C) receptor (Homo sapiens, UniProt P28335).
T1 sequence (P28335 33-458): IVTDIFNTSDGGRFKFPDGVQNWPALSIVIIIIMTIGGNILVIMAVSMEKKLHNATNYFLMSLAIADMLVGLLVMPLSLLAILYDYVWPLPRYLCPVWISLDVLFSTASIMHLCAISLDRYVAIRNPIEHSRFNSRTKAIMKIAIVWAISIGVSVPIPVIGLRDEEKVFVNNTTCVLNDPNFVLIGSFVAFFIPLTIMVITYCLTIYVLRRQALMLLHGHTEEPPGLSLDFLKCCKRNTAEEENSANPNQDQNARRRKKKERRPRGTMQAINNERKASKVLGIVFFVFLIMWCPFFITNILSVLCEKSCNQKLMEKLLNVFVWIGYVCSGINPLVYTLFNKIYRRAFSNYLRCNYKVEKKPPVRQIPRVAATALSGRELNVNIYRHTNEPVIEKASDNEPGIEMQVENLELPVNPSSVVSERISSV
Description: [125I]DOI binding to membranes of CHO cells expressing the h-5-HT2C receptor.

Another assay has as its target T2, human 5-HT2C receptor (Homo sapiens, UniProt P28335).
T2 sequence (P28335 33-458): T1 sequence (P28335 33-458)
Kind of assay: 5-HT2C receptor-stimulated calcium mobilization (FLIPR) in CHO cells. The class given is cell-based. To be noted: for Emax: CHO, read-out: 5-HT2C Function Emax (%). On the technique in general: A change in cytosolic calcium serves as a functional read-out for many receptors and channels.

The mark [2] stands for this setting: 5-HT2c Affinity KI (nM), displacement of [125I]DOI, CHO cell membranes.

Where two headings read alike, the source gives them in different places.

On to `Fc1ccc2c3c1[C@H]1CCCC[C@H]1N3CCNCC2` (single isomer, unassigned) [Example 32, (+)-(8bR*,12aR*)-8-Fluoro-2,3,4,5,8b,9,10,11,12,12a-decahydro-1H-[1,4]diazocino[7,8,1-jk]carbazole], for which affinity in assay [1] (setting [2]) was put at a Ki of 2 nM.
The same measure, in the same setting: as for `Fc1ccc2c3c1[C@H]1CCCC[C@H]1N3CCNCC2` (single isomer, unassigned) [Example 33, (−)-(8bR*,12aR*)-8-Fluoro-2,3,4,5,8b,9,10,11,12,12a-decahydro-1H-[1,4]diazocino[7,8,1-jk]carbazole], the figure is 1.4 nM; as for `Clc1ccc2c3c1[C@H]1CCCC[C@H]1N3CCNCC2` (single isomer, unassigned) [Example 42, (+)-(8bR*,12aR*)-8-Chloro-2,3,4,5,8b,9,10,11,12,12a-decahydro-1H-[1,4]diazocino[7,8,1-jk]carbazole], 5.1 nM.
Consider `Clc1ccc2c3c1[C@H]1CCCC[C@H]1N3CCNCC2` (single isomer, unassigned) [Example 43, (−)-(8bR*,12aR*)-8-Chloro-2,3,4,5,8b,9,10,11,12,12a-decahydro-1H-[1,4]diazocino[7,8,1-jk]carbazole], for which the Ki (commonly the equilibrium dissociation constant of an inhibitor or competing ligand from its target) in assay [1] (setting [2]) turned out to be 7 nM.
With `c1cc2c3c(c1)[C@H]1CCC[C@H]1N3CCNCC2` (single isomer, unassigned) [Example 45, (+)-(8bR*,11aR*)-2,3,4,5,9,10,11,11a-Octahydro-1H,8bH-cyclopenta[b][1,4]diazocino[7,8,1-hi]indole], the Ki in assay [1] (setting [2]) worked out at 362 nM.
`c1cc2c3c(c1)[C@H]1CCC[C@H]1N3CCNCC2` (single isomer, unassigned) [Example 46, (−)-(8bR*,11aR*)-2,3,4,5,9,10,11,11a-Octahydro-1H,8bH-cyclopenta[b][1,4]diazocino[7,8,1-hi]indole]: at human 5-HT2C receptor, the concentration for a half-maximal effect (EC50) (in general, the concentration at which the effect is half-maximal) came out at 0.038 µM and the Emax (as a rule, the greatest response seen or fitted, relative to the assay's reference) turned out to be 70%. Also, the Ki in assay [1] (setting [2]) was found to be 19 nM.
`c1cc2c3c(c1)[C@H]1CCCC[C@H]1N3CCNCC2` (single isomer, unassigned) [Example 47, (+)-(8bR*,12aR*)-2,3,4,5,8b,9,10,11,12,12a-Decahydro-1H-[1,4]diazocino[7,8,1-jk]carbazole]: the affinity in assay [1] (setting [2]) corresponds to a Ki of 135 nM.
Consider `c1cc2c3c(c1)[C@H]1CCCC[C@H]1N3CCNCC2` (single isomer, unassigned) [Example 48, (−)-(8bR*,12aR*)-2,3,4,5,8b,9,10,11,12,12a-Decahydro-1H[1,4]diazocino[7,8,1-jk]carbazole], for which, on human 5-HT2C receptor, the concentration giving a half-maximal response (EC50) stood at 0.042 µM and the Emax was found to be 70%. Moreover, the Ki in assay [1] (setting [2]) was found to be 17 nM.
For the compound `c1cc2c3c(c1)c1c(n3CCNCC2)CCC1` [Example 2, 2,3,4,5,10,11-Hexahydro-1H,9H-cyclopenta[b][1,4]diazocino[7,8,1-hi]indole], at human 5-HT2C receptor, the EC50 stood at 0.02 µM and the Emax turned out to be 80%. In assay [1] (setting [2]), this compound showed an inhibition constant (Ki) of 38 nM.
Turning to `CN1CCc2cccc3c2N(CC1)C1CCCC31` (centres unmarked) [Example 3, 3-Methyl-2,3,4,5,9,10,11,11a-octahydro-1H,8bH-cyclopenta[b][1,4]diazocino[7,8,1-hi]indole], at human 5-HT2C receptor, the EC50 worked out at 0.037 µM and the Emax was 50%. Moreover, the Ki in assay [1] (setting [2]) stood at 41 nM.
On to `c1cc2c3c(c1)C1CCCC1N3CCNCC2` (centres unmarked) [Example 4, 2,3,4,5,9,10,11,11a-Octahydro-1H,8bH-cyclopenta[b][1,4]diazocino[7,8,1-hi]indole], for which, at human 5-HT2C receptor, the EC50 was 0.018 µM and the maximal response (Emax) stood at 90%. The Ki in assay [1] (setting [2]) is 31 nM.
With `c1cc2c3c(c1)c1c(n3CCNCC2)CCCC1` [Example 6, 2,3,4,5,9,10,11,12-Octahydro-1H-[1,4]diazocino[7,8,1-jk]carbazole], on human 5-HT2C receptor, the EC50 came to 0.006 µM and the Emax was 80%. Affinity in assay [1] (setting [2]) was put at a Ki of 4 nM.
With `CN1CCc2cccc3c2N(CC1)C1CCCCC31` (centres unmarked) [Example 7, 3-Methyl-2,3,4,5,8b,9,10,11,12,12a-decahydro-1H-[1,4]diazocino[7,8,1-jk]carbazole], at human 5-HT2C receptor, the EC50 was 0.074 µM and the maximum response (Emax) came to 60%. The affinity in assay [1] (setting [2]), expressed as Ki, was 24 nM.
Consider `CN1CCc2c(Cl)ccc3c2N(CC1)C1CCCC31` (centres unmarked) [Example 15, 6-Chloro-3-Methyl-2,3,4,5,9,10,11,11a-octahydro-1H,8bH-cyclopenta[b][1,4]diazocino[7,8,1-hi]indole], for which the Ki in assay [1] (read-out: 5-HT2c Affinity KI) is 131 nM.
In the case of `CN1CCc2c(Cl)ccc3c2N(CC1)C1CCCCCC31` (centres unmarked) [Example 16, 6-Chloro-3-methyl-2,3,4,5,9,10,11,12,13,13a-decahydro-1H,8bH-cyclohepta[b][1,4]diazocino[7,8,1-hi]indole], the affinity in assay [1] (setting [2]), expressed as Ki, was 84 nM.
Take `Clc1ccc2c3c(n4c2c1CCNCC4)CCC3` [Example 17, 6-Chloro-2,3,4,5,10,11-hexahydro-1H,9H-cyclopenta[b][1,4]diazocino[7,8,1-hi]indole]: in assay [1] (read-out: 5-HT2c Affinity KI), the Ki was 156 nM.
`Clc1ccc2c3c(n4c2c1CCNCC4)CCCC3` [Example 18, 6-Chloro-2,3,4,5,9,10,11,12-octahydro-1H-[1,4]diazocino[7,8,1-jk]carbazole] showed a Ki in assay [1] (setting [2]) of 83 nM.
Take `Clc1ccc2c3c(n4c2c1CCNCC4)CCCCC3` [Example 19, 6-Chloro-2,3,4,5,10,11,12,13-octahydro-1H,9H-cyclohepta[b][1,4]diazocino[7,8,1-hi]indole]: the Ki in assay [1] (read-out: 5-HT2c Affinity KI) is 4970 nM.
For `Clc1ccc2c3c1CCNCCN3C1CCCC21` (centres unmarked) [Example 20, 6-Chloro-2,3,4,5,9,10,11,11a-octahydro-1H,8bH-cyclopenta[b][1,4]diazocino[7,8,1-hi]indole], in assay [1] (read-out: 5-HT2c Affinity KI), the Ki stood at 111 nM.
As for `CCN1CCc2c(Cl)ccc3c2N(CC1)C1CCCC31` (centres unmarked) [Example 21, 6-Chloro-3-ethyl-2,3,4,5,9,10,11,11a-octahydro-1H,8bH-cyclopenta[b][1,4]diazocino[7,8,1-hi]indole], the Ki in assay [1] (read-out: 5-HT2c Affinity KI) was determined as 137 nM.
On to `CCN1CCc2c(Cl)ccc3c2N(CC1)C1CCCCC31` (centres unmarked) [Example 23, 6-Chloro-3-ethyl-2,3,4,5,8b,9,10,11,12,12a-decahydro-1H-[1,4]diazocino[7,8,1-jk]carbazole], for which, in assay [1] (read-out: 5-HT2c Affinity KI), the Ki is 116 nM.
As for `CN1CCc2ccc(F)c3c4c(n(c23)CC1)CCC4` [Example 24, 8-Fluoro-3-methyl-2,3,4,5,10,11-hexahydro-1H,9H-cyclopenta[b][1,4]diazocino[7,8,1-hi]indole], the inhibition constant (Ki) in assay [1] (setting [2]) amounted to 93 nM.
For the compound `CN1CCc2ccc(F)c3c4c(n(c23)CC1)CCCC4` [Example 25, 8-Fluoro-3-methyl-2,3,4,5,9,10,11,12-octahydro-1H-[1,4]diazocino[7,8,1-jk]carbazole], the Ki in assay [1] (setting [2]) worked out at 68 nM.
In the case of `CN1CCc2ccc(F)c3c2N(CC1)C1CCCC31` (centres unmarked) [Example 26, 8-Fluoro-3-methyl-2,3,4,5,9,10,11,11a-octahydro-1H,8bH-cyclopenta[b][1,4]diazocino[7,8,1-hi]indole], the Ki in assay [1] (read-out: 5-HT2c Affinity KI) was found to be 176 nM.
As for `CN1CCc2cccc3c2N(CC1)C1CCSCC31` (centres unmarked) [Example 44, 3-Methyl-2,3,4,5,9,10,11,12-octahydro-1H,9H-[1,4]diazocino[7,8,1-hi]thiopyrano[4,3-b]indole], in assay [1] (read-out: 5-HT2c Affinity KI), the Ki was 1720 nM.
Take `CSc1ccc2c(c1)C(N1CCN(C)CC1)Cc1ccccc1S2` (centres unmarked) [Methiothepin, reference compound]: the Ki in assay [1] (reference compounds, displacement of [125I]DOI, CHO cell membranes, read-out: Ki (95% confidence interval)) was 4.6 nM.
Regarding `COc1cc(CC(C)N)c(OC)cc1I` (centres unmarked) [[^125I] DOI, reference compound], in assay [1] (saturation binding with increasing concentrations of [125I]DOI, read-out: dissociation constant, KD), the Kd (as a rule, a measure of binding affinity in units of concentration) stood at 0.0004 µM.
